Two compounds from ChEMBL document CHEMBL1148928, “Hyrtiosenolides A and B, two new sesquiterpene gamma-methoxybutenolides and a new sterol from a Red Sea sponge Hyrtios species” (2004) can be followed below.

Active and inactive are the calls of the source. No cut-off for these calls is given here.

Assay [1] deals with Escherichia coli. Description: Antibacterial activity against Escherichia coli at 100 ug/disk. It is filed as functional.
Assay [2] relates to Escherichia coli. Put plainly: Antibacterial activity against Escherichia coli at 50 ug/disk. The class given is functional.

In the case of `C=C1[C@@]2(C)CCC3=CC(=O)O[C@]3(OC)[C@H](C2)C[C@@]1(C)O`, the result in the assay with Escherichia coli [1] and in the assay on Escherichia coli [2] was inactive.

Turning to `C=C1C[C@H]2C[C@](C)(CCC3=CC(=O)O[C@@]32OC)[C@]1(C)O` [HYRTIOSENOLIDE A], the zone of inhibition at 100 µg/disc in the assay with Escherichia coli [1] (read-out: IZ) is 7 mm. Besides, the zone of inhibition at 50 µg/disc in the assay on Escherichia coli [2] (read-out: IZ) turned out to be 7 mm.
